The record followed here is patent publication US11339165B2, “Pyrazolopyrimidines having activity against the respiratory syncytial virus (RSV)” (priority 2017, dated 2022).

pEC50: −log10 of the molar value. Where two headings read alike, the source gives them in different places.

One may read the pEC50 as the negative decadic logarithm of the EC50, by convention in mol/L. Usually CC50 stands for the concentration giving 50% cytotoxicity. The term EC50 denotes the concentration needed to bring the measured effect to its halfway point. Usually melting point stands for the temperature of the solid-liquid transition.

In one series the test system is rgRSV224 virus. The experiment in a line: Antiviral activity: rgRSV224 (GFP) replication in HeLa cells. In kind it is cell-based, respiratory syncytial virus (RSV).
Series [1] concerns HeLa cells.
The nature of series [2]: Cytotoxicity in HeLa cells (ATP content, ATPlite kit). Particulars: human. (In general: Cellular ATP, detected with luciferase, serves as a proxy for viable cell number.)
Series [3] is described as follows: Pharmacokinetics after single intravenous administration in the fasted male Beagle dog. It counts as in vivo. The settings on record: intravenous administration at 1 mg/kg in dogs, first 8 hours after administration. Here is the method: E.2 Pharmacokinetics after Single Intravenous Administration in the Fasted Male Beagle Dog
The test compound was dissolved in a 20% (w/v) hydroxypropyl-β-cyclodextrin (HP-beta-CD) solution at a final concentration of 2 mg/mL for the intravenous formulation. NaOH was added to the formulations to facilitate dissolution and after total dissolution the pH was adjusted with HCl to 8.4. The intravenous (IV) formulation was made isotonic with mannitol. Prior to dosing, all formulations were stored at room temperature and protected from light. The IV formulation was dosed in a cephalic vein at 0.5 mL/kg to obtain a final dose of 1 mg/kg.
Three male Beagle dogs, with a mean weight of 10.9±1.1 kg, were used. A complete concentration time profile was obtained from each individual animal. Prior to dosing, animals were fasted overnight. Their standard dry diet was returned to them at 2 hours post dose. Tap water was available ad libitum.
From each individual animal, blood samples were taken at 7 and 20 minutes, 1, 2, 4, 7, 24 and 48 hours after intravenous dose administration. […] Plasma samples were analysed using a qualified research LC-MS/MS method. The key analytical performance (linearity, upper and lower limit of quantification, accuracy and precision) of the method was reported together with the plasma concentrations. The lower limit of quantification (LLOQ) was 10.0 ng/mL. […]

A further series can be described thus: in vitro. The settings on record: human, TOX HELA CC50 (μM).
For series [4], the system named is HeLa cells. Put plainly: Cytotoxicity in HeLa cells (ATP content, ATPlite kit). The settings on record: read-out: TOX HELA CC50; HeLa cells, three days incubation, ATP content.
Where [5] appears, read: rgRSV224 virus (MOI=1), HeLa cells, GFP expression three days post-virus exposure; read-out: RSV HELA EC50.
The mark [6] stands for this setting: human respiratory syncytial virus, HeLa, 72 h, read-out: RSV HELA EC50 (μM), rgRSV224 virus (MOI=1), HeLa cells, GFP expression three days post-virus exposure.

As for `C[C@@H]1c2ccccc2CCN1C(=O)c1cc(C2CC2)n2nc(-c3ccc(N4C[C@@H](C(N)=O)C[C@@H]4C)cc3F)cc2n1` (relative stereo) [Compound 35, (3*S,5*S)-1-(4-{7-cyclopropyl-5-[(1R)-1-methyl-1,2,3,4-tetrahydroisoquinoline-2-carbonyl]pyrazolo[1,5-a]pyrimidin-2-yl}-3-fluorophenyl)-5-methylpyrrolidine-3-carboxamide], in the series on rgRSV224 virus (setting [5]), the pEC50 is 7.48. Half-maximal cytotoxicity with HeLa cells [1] (CC50) was put at 25.5 µM.
`C[C@@H]1c2ccccc2CCN1C(=O)c1cc(C2CC2)n2nc(-c3ccc(N4CC[C@H](NP(C)(C)=O)C4)cc3F)cc2n1` [Compound 31, (1R)-2-(7-Cyclopropyl-2-{4-[(3S)-3-[(dimethylphosphoryl)amino]pyrrolidin-1-yl]-2-fluorophenyl}pyrazolo[1,5-a]pyrimidine-5-carbonyl)-1-methyl-1,2,3,4-tetrahydro-isoquinoline]: the concentration for a half-maximal effect (EC50) in the series on rgRSV224 virus (setting [6]) was determined as 0.036 µM. The 50% cytotoxic concentration (CC50) at 3 days in series [2] turned out to be 39.1 µM.
On to `CNC(=O)[C@H]1CCN(c2ccc(-c3cc4nc(C(=O)N5CCc6ccccc6[C@H]5C)cc(C5CC5)n4n3)c(F)c2)C1` [Compound 37, (3S)-1-(4-{7-Cyclopropyl-5-[(1R)-1-methyl-1,2,3,4-tetrahydroisoquinoline-2-carbonyl]pyrazolo[1,5-a]pyrimidin-2-yl}-3-fluorophenyl)-N-methylpyrrolidine-3-carboxamide], for which the melting point is 123.18 °C. Also, the plasma concentration profile entry in series [3] was “does not show this rapid decline”. This molecule also returned a 50% cytotoxic concentration (CC50) at 3 days in the series “in vitro” of 62 µM. In addition, the EC50 in the series with rgRSV224 virus (setting [6]) came out at 0.019 µM.
For the molecule `C[C@@H]1c2ccccc2CCN1C(=O)c1cc(C2CC2)n2nc(-c3ccc(N4CC[C@@H](NP(C)(C)=O)C4)cc3F)cc2n1` [Compound 30, (1R)-2-(7-Cyclopropyl-2-{4-[(3R)-3-[(dimethylphosphoryl)amino]pyrrolidin-1-yl]-2-fluorophenyl}pyrazolo[1,5-a]pyrimidine-5-carbonyl)-1-methyl-1,2,3,4-tetrahydro-isoquinoline], the EC50 in the series on rgRSV224 virus (setting [6]) stood at 0.036 µM. Further, in series [2], the half-maximal cytotoxic concentration (CC50) at 3 days worked out at 33.9 µM.
For `C[C@@H]1c2ccccc2CCN1C(=O)c1cc(C2CC2)n2nc(-c3ccc(N4C[C@@H](C(N)=O)C[C@H]4C)cc3F)cc2n1` (relative stereo) [Compound 34, (3*S,5*R)-1-(4-{7-cyclopropyl-5-[(1R)-1-methyl-1,2,3,4-tetrahydroisoquinoline-2-carbonyl]pyrazolo[1,5-a]pyrimidin-2-yl}-3-fluorophenyl)-5-methylpyrrolidine-3-carboxamide], in the series with rgRSV224 virus (setting [5]), the negative-log EC50 (pEC50) was 7.43. The half-maximal cytotoxic concentration (CC50) in the series with HeLa cells [4] stood at 23.1 µM.
Consider `C[C@@H]1c2ccccc2CCN1C(=O)c1cc(C2CC2)n2nc(-c3ccc(N4C[C@H](O)[C@@H](O)C4)cc3F)cc2n1` [Compound 102, (7-cyclopropyl-2-(4-((3S,4S)-3,4-dihydroxypyrrolidin-1-yl)-2-fluorophenyl)pyrazolo[1,5-a]pyrimidin-5-yl)((R)-1-methyl-3,4-dihydroisoquinolin-2(1H)-yl)methanone], for which, in series [3], the plasma concentration profile result was “does not show this rapid decline”. The CC50 at 3 days in the series “in vitro” amounted to 44.4 µM. In addition, in the series on rgRSV224 virus (setting [6]), the EC50 worked out at 0.026 µM.
With `C[C@@H]1c2ccccc2CCN1C(=O)c1cc(C2CC2)n2nc(-c3ccc(N4CCC(O)(CO)C4)cc3F)cc2n1` (single isomer, unassigned) [Compound 104], the pEC50 in the series with rgRSV224 virus (read-out: RSV HELA EC50; rgRSV224 virus (MOI=1), HeLa cells, GFP expression three days post-virus exposure) was 7.60. The half-maximal cytotoxic concentration (CC50) in the series with HeLa cells [1] (human, 3 days) came out at 28.2 µM.
